# Measurements as given in ChEMBL document CHEMBL3991601, “The target landscape of clinical kinase drugs” (Science, 2017).
# Activity calls are given as the source filed them. Rule as the data show it, for most assays here: actives have a measured Kd and inactives only a lower limit.
# Columns and labels:
# [1] = molecular target: Ribosomal protein S6 kinase alpha-6 (Homo sapiens, UniProt Q9UK32)
# [2] = molecular target: Calcium/calmodulin-dependent protein kinase kinase 2 (Homo sapiens, UniProt Q96RR4)
# [3] = molecular target: Activated CDC42 kinase 1 (Homo sapiens, UniProt Q07912)
# [4] = molecular target: Ephrin type-A receptor 4 (Homo sapiens, UniProt P54764)
# [5] = molecular target: Adenosine kinase (Homo sapiens, UniProt P55263)
# [6] = molecular target: T1, RNA cytidine acetyltransferase (Homo sapiens, UniProt Q9H0A0)
# T1 sequence (Q9H0A0 whole entry): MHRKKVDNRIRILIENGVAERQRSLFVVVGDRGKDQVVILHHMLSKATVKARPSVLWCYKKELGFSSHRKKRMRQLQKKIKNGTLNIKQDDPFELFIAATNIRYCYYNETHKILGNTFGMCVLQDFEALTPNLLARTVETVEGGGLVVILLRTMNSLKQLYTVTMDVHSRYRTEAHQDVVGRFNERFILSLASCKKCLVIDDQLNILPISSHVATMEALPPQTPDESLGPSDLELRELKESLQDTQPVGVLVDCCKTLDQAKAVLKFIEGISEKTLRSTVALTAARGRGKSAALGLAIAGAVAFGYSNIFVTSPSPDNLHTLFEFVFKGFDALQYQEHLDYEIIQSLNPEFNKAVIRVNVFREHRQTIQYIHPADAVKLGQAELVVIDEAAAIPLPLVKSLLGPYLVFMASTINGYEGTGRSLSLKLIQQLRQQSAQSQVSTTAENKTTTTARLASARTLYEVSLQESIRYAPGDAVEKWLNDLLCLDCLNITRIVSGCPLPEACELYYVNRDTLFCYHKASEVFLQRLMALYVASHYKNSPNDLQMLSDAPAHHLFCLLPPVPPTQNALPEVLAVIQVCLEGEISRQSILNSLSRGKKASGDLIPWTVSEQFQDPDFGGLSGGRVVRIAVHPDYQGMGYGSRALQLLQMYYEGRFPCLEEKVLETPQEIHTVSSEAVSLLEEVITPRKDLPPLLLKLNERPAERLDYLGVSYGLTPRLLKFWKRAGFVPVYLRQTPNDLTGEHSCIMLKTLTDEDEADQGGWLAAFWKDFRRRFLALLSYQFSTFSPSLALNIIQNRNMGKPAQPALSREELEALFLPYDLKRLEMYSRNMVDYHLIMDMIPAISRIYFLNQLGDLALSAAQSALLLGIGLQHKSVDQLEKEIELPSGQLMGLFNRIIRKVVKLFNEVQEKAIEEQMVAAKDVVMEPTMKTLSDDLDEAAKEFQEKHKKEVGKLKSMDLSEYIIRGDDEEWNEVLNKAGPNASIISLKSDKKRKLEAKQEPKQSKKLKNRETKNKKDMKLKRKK
# [7] = molecular target: T2, Dual specificity mitogen-activated protein kinase kinase 5 (Homo sapiens, UniProt Q13163)
# T2 sequence (Q13163 whole entry): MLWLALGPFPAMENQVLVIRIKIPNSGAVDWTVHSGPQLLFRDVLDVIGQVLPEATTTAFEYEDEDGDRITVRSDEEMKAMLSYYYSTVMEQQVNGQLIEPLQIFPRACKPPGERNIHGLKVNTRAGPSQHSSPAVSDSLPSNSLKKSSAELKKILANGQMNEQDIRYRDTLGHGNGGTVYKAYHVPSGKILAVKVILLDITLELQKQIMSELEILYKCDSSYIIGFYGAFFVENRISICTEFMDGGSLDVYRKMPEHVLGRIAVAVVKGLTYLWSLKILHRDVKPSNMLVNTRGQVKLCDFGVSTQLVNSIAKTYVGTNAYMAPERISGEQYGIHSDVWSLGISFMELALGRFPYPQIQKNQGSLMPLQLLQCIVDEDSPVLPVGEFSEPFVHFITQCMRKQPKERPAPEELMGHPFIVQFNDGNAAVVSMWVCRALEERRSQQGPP
# [8] = molecular target: Serine/threonine-protein kinase B-raf (Homo sapiens, UniProt P15056)
# [9] = molecular target: Serine/threonine-protein kinase PAK 2 (Homo sapiens, UniProt Q13177)
# [10] = molecular target: T3, Serine/threonine-protein kinase TAO3 (Homo sapiens, UniProt Q9H2K8)
# T3 sequence (Q9H2K8 whole entry): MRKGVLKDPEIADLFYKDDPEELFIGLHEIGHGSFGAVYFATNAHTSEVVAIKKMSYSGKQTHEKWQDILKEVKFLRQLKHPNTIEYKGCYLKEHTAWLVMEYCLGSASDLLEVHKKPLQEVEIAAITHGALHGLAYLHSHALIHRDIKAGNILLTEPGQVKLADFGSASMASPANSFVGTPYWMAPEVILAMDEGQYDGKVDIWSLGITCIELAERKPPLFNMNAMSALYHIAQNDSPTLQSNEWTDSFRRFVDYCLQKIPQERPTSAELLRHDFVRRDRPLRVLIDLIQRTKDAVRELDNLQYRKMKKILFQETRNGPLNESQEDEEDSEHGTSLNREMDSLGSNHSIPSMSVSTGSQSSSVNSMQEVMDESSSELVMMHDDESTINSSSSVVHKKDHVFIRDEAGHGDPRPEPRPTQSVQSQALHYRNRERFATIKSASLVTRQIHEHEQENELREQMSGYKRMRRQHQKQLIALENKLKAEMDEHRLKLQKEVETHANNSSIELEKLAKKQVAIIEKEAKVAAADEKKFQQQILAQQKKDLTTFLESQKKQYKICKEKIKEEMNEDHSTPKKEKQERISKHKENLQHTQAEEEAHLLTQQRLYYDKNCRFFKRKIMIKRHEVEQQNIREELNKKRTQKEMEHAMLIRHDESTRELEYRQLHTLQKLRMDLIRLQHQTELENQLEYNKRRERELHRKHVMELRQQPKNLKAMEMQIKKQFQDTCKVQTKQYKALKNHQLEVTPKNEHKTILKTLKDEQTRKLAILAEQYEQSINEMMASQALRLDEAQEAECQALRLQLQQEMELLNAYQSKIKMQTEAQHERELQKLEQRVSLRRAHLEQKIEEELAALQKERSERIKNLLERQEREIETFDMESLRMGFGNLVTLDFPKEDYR
# [11] = molecular target: Mitogen-activated protein kinase kinase kinase 4 (Homo sapiens, UniProt Q9Y6R4)
# [12] = molecular target: cAMP-dependent protein kinase catalytic subunit beta (Homo sapiens, UniProt P22694)
# [13] = molecular target: Ephrin type-A receptor 2 (Homo sapiens, UniProt P29317)
# [14] = molecular target: Serine/threonine-protein kinase 16 (Homo sapiens, UniProt O75716)
# Also: in the data inactive means no Kd found up to 30 µM.
# Serine/threonine-protein kinase B-raf, sequence (P15056 whole entry): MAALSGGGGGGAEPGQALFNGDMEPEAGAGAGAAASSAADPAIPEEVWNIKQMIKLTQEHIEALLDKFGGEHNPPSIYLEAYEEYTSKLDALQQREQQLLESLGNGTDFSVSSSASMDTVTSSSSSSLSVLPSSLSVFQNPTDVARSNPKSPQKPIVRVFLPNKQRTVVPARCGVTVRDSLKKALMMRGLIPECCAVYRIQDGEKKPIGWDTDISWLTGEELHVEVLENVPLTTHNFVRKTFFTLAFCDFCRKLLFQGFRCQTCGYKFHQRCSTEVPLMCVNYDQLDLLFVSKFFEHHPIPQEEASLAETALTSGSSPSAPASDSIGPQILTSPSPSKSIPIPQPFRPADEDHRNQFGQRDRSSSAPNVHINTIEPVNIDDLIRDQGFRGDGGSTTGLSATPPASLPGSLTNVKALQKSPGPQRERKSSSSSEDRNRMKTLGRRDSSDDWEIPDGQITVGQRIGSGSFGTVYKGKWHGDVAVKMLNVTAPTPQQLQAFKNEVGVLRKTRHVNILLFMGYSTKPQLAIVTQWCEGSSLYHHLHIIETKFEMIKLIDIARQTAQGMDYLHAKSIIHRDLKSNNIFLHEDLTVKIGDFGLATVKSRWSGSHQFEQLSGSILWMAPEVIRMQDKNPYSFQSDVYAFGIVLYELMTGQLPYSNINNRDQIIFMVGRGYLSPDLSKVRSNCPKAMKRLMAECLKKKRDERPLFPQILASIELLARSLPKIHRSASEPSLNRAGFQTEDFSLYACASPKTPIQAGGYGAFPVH
# Ephrin type-A receptor 2, sequence (P29317 whole entry): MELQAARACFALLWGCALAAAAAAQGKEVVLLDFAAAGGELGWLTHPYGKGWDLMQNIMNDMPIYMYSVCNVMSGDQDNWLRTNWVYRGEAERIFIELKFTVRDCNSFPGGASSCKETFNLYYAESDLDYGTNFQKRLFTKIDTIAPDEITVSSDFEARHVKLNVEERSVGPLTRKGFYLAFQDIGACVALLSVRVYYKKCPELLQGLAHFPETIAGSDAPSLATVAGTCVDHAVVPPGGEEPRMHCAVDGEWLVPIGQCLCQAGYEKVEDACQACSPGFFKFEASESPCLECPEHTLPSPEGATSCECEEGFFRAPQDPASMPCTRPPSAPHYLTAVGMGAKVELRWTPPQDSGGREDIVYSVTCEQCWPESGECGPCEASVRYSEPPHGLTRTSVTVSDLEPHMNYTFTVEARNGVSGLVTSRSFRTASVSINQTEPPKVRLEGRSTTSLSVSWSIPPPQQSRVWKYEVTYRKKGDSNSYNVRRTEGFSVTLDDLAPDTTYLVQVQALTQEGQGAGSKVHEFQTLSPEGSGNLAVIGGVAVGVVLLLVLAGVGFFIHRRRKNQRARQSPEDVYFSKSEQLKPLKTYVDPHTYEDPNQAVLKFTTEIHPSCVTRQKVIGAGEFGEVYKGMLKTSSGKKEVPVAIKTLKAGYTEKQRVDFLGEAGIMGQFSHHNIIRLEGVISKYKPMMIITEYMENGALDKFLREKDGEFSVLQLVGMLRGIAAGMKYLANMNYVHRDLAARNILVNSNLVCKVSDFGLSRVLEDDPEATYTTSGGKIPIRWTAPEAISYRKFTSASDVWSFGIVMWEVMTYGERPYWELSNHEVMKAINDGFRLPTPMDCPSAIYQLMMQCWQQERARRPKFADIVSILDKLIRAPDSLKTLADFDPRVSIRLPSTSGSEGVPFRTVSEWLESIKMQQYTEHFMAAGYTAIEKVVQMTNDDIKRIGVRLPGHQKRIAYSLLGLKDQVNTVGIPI
# Calcium/calmodulin-dependent protein kinase kinase 2, sequence (Q96RR4 whole entry): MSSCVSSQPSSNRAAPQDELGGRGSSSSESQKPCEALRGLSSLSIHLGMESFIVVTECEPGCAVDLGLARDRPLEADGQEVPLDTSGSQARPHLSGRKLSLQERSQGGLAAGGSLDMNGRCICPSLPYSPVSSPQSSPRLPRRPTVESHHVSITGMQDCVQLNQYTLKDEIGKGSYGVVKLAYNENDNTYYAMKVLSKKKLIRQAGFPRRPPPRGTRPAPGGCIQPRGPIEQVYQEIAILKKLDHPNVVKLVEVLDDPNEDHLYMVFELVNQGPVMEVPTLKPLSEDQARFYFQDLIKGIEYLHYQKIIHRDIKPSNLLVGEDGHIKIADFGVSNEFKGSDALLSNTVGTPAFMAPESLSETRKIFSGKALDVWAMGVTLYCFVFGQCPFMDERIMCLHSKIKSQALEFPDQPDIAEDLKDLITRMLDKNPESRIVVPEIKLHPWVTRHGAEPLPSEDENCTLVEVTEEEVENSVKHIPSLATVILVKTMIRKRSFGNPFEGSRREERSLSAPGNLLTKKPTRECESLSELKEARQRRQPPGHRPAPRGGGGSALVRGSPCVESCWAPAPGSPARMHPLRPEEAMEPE
# Activated CDC42 kinase 1, sequence (Q07912 whole entry): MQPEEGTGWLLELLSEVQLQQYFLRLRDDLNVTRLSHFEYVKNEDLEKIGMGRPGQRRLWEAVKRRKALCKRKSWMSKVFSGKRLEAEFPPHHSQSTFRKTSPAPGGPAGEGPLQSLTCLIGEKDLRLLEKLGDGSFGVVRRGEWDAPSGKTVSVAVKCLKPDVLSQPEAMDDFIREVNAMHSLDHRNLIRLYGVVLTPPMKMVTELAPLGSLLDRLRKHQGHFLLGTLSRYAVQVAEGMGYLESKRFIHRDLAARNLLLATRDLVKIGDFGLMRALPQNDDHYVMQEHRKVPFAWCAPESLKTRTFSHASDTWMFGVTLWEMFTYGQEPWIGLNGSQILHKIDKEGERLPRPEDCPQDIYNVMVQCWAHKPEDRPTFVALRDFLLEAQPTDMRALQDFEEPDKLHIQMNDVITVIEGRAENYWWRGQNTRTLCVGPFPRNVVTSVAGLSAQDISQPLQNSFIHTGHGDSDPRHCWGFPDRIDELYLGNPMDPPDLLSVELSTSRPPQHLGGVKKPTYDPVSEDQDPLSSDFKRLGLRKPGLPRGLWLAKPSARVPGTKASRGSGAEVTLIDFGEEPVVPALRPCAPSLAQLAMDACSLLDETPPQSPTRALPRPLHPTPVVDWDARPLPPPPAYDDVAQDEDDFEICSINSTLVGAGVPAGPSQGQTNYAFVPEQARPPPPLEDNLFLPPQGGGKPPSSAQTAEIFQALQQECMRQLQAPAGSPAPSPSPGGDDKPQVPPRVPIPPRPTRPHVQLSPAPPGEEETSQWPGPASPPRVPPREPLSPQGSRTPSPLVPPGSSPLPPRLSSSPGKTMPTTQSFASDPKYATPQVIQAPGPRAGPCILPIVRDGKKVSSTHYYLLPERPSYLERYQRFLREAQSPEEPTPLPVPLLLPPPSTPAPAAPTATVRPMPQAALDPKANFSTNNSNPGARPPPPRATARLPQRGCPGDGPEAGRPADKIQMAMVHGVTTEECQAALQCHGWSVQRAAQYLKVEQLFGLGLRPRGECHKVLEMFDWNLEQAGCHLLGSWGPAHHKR
# Serine/threonine-protein kinase PAK 2, sequence (Q13177 whole entry): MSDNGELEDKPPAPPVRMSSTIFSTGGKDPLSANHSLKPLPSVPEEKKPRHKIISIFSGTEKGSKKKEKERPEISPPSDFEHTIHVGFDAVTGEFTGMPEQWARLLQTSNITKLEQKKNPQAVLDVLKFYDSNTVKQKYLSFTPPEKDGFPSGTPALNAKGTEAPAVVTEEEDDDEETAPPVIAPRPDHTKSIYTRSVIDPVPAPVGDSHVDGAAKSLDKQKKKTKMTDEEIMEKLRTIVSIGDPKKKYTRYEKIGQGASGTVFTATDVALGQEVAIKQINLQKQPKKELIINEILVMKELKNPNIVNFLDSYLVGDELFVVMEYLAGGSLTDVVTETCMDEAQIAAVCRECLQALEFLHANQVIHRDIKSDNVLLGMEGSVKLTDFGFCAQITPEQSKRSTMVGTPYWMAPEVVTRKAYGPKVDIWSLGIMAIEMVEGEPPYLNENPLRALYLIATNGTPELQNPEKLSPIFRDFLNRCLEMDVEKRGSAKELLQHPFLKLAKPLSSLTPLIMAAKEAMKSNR
# Serine/threonine-protein kinase 16, sequence (O75716 whole entry): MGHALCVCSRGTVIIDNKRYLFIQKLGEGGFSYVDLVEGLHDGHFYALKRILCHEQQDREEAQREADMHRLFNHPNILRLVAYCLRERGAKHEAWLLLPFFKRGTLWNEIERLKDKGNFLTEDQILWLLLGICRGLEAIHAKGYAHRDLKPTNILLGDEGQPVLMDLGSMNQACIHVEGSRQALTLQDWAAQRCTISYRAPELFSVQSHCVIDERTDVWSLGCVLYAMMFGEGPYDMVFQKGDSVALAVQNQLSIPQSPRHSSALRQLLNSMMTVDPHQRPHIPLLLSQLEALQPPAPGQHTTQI
# Ribosomal protein S6 kinase alpha-6, sequence (Q9UK32 whole entry): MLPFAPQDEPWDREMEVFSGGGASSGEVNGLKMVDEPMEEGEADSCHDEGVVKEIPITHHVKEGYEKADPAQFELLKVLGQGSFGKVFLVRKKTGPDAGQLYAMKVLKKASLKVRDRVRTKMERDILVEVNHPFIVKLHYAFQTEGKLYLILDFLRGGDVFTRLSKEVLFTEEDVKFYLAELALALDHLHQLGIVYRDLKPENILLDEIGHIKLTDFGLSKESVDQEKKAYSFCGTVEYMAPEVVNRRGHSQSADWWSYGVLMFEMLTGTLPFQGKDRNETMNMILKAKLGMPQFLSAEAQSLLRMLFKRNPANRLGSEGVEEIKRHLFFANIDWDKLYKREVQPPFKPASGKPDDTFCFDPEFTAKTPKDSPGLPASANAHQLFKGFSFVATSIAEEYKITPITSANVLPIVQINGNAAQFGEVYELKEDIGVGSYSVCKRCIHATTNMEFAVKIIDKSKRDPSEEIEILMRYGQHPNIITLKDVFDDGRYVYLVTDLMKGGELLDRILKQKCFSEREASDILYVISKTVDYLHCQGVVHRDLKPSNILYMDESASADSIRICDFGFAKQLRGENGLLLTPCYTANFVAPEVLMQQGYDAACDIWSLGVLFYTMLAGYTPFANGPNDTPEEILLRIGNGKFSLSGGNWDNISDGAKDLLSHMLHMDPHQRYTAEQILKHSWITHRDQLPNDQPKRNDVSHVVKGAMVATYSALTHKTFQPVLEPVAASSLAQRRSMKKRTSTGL
Kd [1],Kd [2],Kd [3],Kd [4],Kd [5],Kd [6],Kd [7],Kd [8],Kd [9],Kd [10],Kd [11],Kd [12],Kd [13],Kd [14],SMILES
> 30 µM (inactive),> 30 µM (inactive),> 30 µM (inactive),> 30 µM (inactive),> 30 µM (inactive),> 30 µM (inactive),> 30 µM (inactive),> 30 µM (inactive),> 30 µM (inactive),> 30 µM (inactive),> 30 µM (inactive),> 30 µM (inactive),> 30 µM (inactive),> 30 µM (inactive),O=C(Nc1ccc(-c2ccnc(Nc3ccc(N4CCOCC4)cc3)n2)cc1)C1CCCN1 (stereo not given) [XL-019]
> 30 µM (inactive),> 30 µM (inactive),0.148 µM,> 30 µM (inactive),> 30 µM (inactive),> 30 µM (inactive),> 30 µM (inactive),> 30 µM (inactive),> 30 µM (inactive),> 30 µM (inactive),> 30 µM (inactive),> 30 µM (inactive),> 30 µM (inactive),> 30 µM (inactive),COc1cc(CCc2cc(NC(=O)c3ccc(N4C[C@@H](C)N[C@@H](C)C4)cc3)n[nH]2)cc(OC)c1 [AZD-4547]
> 30 µM (inactive),> 30 µM (inactive),> 30 µM (inactive),> 30 µM (inactive),> 30 µM (inactive),> 30 µM (inactive),> 30 µM (inactive),> 30 µM (inactive),> 30 µM (inactive),> 30 µM (inactive),> 30 µM (inactive),> 30 µM (inactive),> 30 µM (inactive),> 30 µM (inactive),COc1cc(OC)c(/C=C/S(=O)(=O)Cc2ccc(OC)c(NCC(=O)O)c2)c(OC)c1 [RIGOSERTIB]
23.8 µM (active),> 30 µM (inactive),> 30 µM (inactive),> 30 µM (inactive),> 30 µM (inactive),> 30 µM (inactive),> 30 µM (inactive),> 30 µM (inactive),> 30 µM (inactive),> 30 µM (inactive),> 30 µM (inactive),> 30 µM (inactive),> 30 µM (inactive),> 30 µM (inactive),CN1CCC(CNc2ccc3ncc(-c4cccc(OC(F)(F)F)c4)n3n2)CC1 [SGI-1776]
> 30 µM (inactive),0.195 µM (active),> 30 µM (inactive),> 30 µM (inactive),> 30 µM (inactive),> 30 µM (inactive),> 30 µM (inactive),> 30 µM (inactive),> 30 µM (inactive),> 30 µM (inactive),> 30 µM (inactive),> 30 µM (inactive),> 30 µM (inactive),> 30 µM (inactive),CC[C@@H]1C(=O)N(C)c2cnc(Nc3ccc(C(=O)N[C@H]4CC[C@H](N5CCN(CC6CC6)CC5)CC4)cc3OC)nc2N1C(C)C [VOLASERTIB]
> 30 µM (inactive),> 30 µM (inactive),> 30 µM (inactive),> 30 µM (inactive),> 30 µM (inactive),> 30 µM (inactive),> 30 µM (inactive),> 30 µM (inactive),> 30 µM (inactive),> 30 µM (inactive),> 30 µM (inactive),> 30 µM (inactive),> 30 µM (inactive),> 30 µM (inactive),C[C@@H](c1ccc2nccn2c1)n1nnc2ncc(-c3cnn(C)c3)nc21 [SAVOLITINIB]
> 30 µM (inactive),> 30 µM (inactive),> 30 µM (inactive),> 30 µM (inactive),> 30 µM (inactive),> 30 µM (inactive),> 30 µM (inactive),> 30 µM (inactive),> 30 µM (inactive),> 30 µM (inactive),> 30 µM (inactive),> 30 µM (inactive),> 30 µM (inactive),> 30 µM (inactive),Cc1cc([C@@H](C)Nc2ccccc2C(=O)O)c2nc(N3CCOCC3)cc(=O)n2c1 [AZD-6482]
> 30 µM (inactive),> 30 µM (inactive),> 30 µM (inactive),> 30 µM (inactive),> 30 µM (inactive),> 30 µM (inactive),> 30 µM (inactive),> 30 µM (inactive),> 30 µM (inactive),> 30 µM (inactive),> 30 µM (inactive),> 30 µM (inactive),> 30 µM (inactive),> 30 µM (inactive),COCCNCc1ccc(-c2cc3nccc(Oc4ccc(NC(=S)NC(=O)Cc5ccc(F)cc5)cc4F)c3s2)nc1 [GLESATINIB]
> 30 µM (inactive),> 30 µM (inactive),> 30 µM (inactive),> 30 µM (inactive),> 30 µM (inactive),> 30 µM (inactive),> 30 µM (inactive),> 30 µM (inactive),> 30 µM (inactive),> 30 µM (inactive),> 30 µM (inactive),> 30 µM (inactive),> 30 µM (inactive),> 30 µM (inactive),CCn1c(=O)c(-c2cc[nH]n2)cc2c(C)nc(N)nc21 [VOXTALISIB]
> 30 µM (inactive),> 30 µM (inactive),> 30 µM (inactive),> 30 µM (inactive),> 30 µM (inactive),> 30 µM (inactive),> 30 µM (inactive),> 30 µM (inactive),> 30 µM (inactive),> 30 µM (inactive),> 30 µM (inactive),> 30 µM (inactive),> 30 µM (inactive),> 30 µM (inactive),COc1ccc(-c2ccc3c(N4CCOC[C@@H]4C)nc(N4CCOC[C@@H]4C)nc3n2)cc1CO [AZD-8055]
